Experimental data reported in US9447157B2, “Nitration shielding peptides and methods of use thereof” (Augusta University Research Institute, Inc., priority 2013, dated 2016).

What was measured:
PKG-1α [1] = test: PKG activity in transfected HEK-293T cells; assay type: cell-based, human; conditions: SIN-1 500 μM 30 min
Method: To determine the role of tyrosine 247 and tyrosine 425 in mediating the nitration dependent inhibition of PKG-1α kinase activity, Y247F- and Y425F-PKG-1α mutants were generated and expressed in HEK-293T cells. HEK-293T cells were transiently transfected with expression plasmids containing WT-, Y247F-, or Y425F-PKG-1α for 48 h. Cells were also treated or not with SIN-1 (500 μM, 30 min). Protein extracts were immunoprecipitated using an antibody raised against PKG-1α and the level of nitrated PKG-1α determined by probing the membranes with an antiserum raised against 3-NT. The blots were then stripped and re-probed for PKG-1α to normalize for the efficiency of the immunoprecipitation.
Measurement of PKG Catalytic Activity Total PKG activity was determined using a non-radioactive immunoassay in cell lysates, according to the manufacturer's directions. […]
After incubation for 30 min at 30° C. to allow the phosphorylation of the bound substrate, an HRP conjugated anti-phosphothreonine specific antibody was added to convert a chromogenic substrate to a colorimetric substrate that was subsequently read spectrophotometrically at 450 nm. The change in absorbance reflected the relative activity of PKG in the sample. […] The kinetic constants were determined using nonlinear regression (curve fit) analysis (GraphPad Prism Software Inc).

PKG-1α [2] = biological target: T1, PKG-1α (Homo sapiens, UniProt Q13976); test: 3-NT-Y247-PKG-1α immunoblot in transfected PASMC; assay type: cell-based; conditions: PASMC transfected with WT-PKG-1α, SIN-1 500 μM 30 min
T1 construct: transfected with an expression plasmid containing a full length WT-PKG-1α cDNA; made in house; host or cells: HEK-293T (methods); the results paragraph b527 says PASMC
T1 sequence (Q13976 2-671): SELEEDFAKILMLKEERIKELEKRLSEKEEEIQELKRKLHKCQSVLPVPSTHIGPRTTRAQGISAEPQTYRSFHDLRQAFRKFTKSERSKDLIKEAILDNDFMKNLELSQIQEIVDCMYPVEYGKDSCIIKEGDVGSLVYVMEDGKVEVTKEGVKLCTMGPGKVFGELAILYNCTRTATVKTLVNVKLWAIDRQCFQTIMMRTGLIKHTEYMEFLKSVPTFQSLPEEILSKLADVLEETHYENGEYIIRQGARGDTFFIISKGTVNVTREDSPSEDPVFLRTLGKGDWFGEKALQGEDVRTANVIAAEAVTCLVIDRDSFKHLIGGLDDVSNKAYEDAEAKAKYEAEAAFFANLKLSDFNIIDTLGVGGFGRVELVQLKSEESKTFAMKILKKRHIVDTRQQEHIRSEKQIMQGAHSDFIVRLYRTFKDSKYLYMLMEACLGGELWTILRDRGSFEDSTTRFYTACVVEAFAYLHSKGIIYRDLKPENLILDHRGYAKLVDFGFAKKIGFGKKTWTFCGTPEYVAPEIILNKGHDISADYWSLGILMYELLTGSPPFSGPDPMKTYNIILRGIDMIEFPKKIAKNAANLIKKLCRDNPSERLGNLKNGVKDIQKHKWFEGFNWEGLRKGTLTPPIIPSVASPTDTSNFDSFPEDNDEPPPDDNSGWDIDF
Method: The 3-NT Y247 PKG-1α specific antibody was raised against a synthetic peptide antigen ENGE(Y-NO2)[…], where Y-NO2 represent 3-nitrotyrosine. The peptide was used to immunize rabbits. Tyrosine nitration-reactive rabbit antiserum was first purified by affinity chromatography. Further purification was carried out using immunodepletion by non-nitrated peptide […] resin chromatography, after which the resulting eluate was tested for antibody specificity by immunoblotting and immune-histochemistry with fluorescent staining.
Cells were prepared as previously described (Sud, N., et al., American Journal of Physiology 293, L1444-1453 (2007); Sharma, S., et al., American Journal of Physiology 294, L46-56 (2008)). Briefly, the cellular protein extracts were prepared by homogenizing the cells in lysis buffer (50 mM Tris-HCl, pH 7.6, 0.5% Triton X-100, and 20% glycerol) containing Halt protease inhibitor cocktail (Pierce, Rockford, Ill.). The extracts were then clarified by centrifugation (20,000 g for 20 min at 4° C.). […] Reactive bands were visualized using chemi-luminescence (Pierce Laboratories, Rockford, Ill.) on a Kodak 440CF image station. The band intensity was quantified using Kodak 1D image processing software. […]
PASMC were transiently transfected with expression plasmids containing WT- or Y247FPKG-1α for 48 h. […] The fluorescent-stained sections were analyzed using confocal microscopy.

“3-morpholinosydnonimine N-ethylcarbamide [SIN-1]” was tested, and the “cGMP dependent PKG activity, WT- and Y425F-PKG-1α cells” value (PKG-1α [1]; HEK-293T expressing WT- and Y425F-PKG-1α) was “attenuated”, the “cGMP-independent PKG activity” value (PKG-1α [1]; transfected HEK-293T) was “did not alter” and the “WT-PKG-1α nitration (3-NT-Y247-PKG-1α antibody)” value (PKG-1α [2]) was “significantly increased”.
